Experimental data published in PMC4491112 (Cancer chemotherapy and pharmacology, 2011).
“Also recorded” adds a separate entry of the source. Where two headings read alike, the source gives them in different places.

Tests used:
[1] = high-fat breakfast vs fasting, P < 0.001; cited from earlier work
[2] = Adverse events and ECG; type: in vivo, human
[3] = fasting state, two other phase 1 studies, CV 56%; cited from earlier work
[4] = highly soluble, highly permeable class; cited from earlier work
[5] = type: in vivo, human; conditions: 20 mg oral
[6] = administered on days 1 and 4 of a weekly schedule; cited from earlier work
[7] = Adverse events, laboratory abnormalities and ECG; type: in vivo, human; conditions: continual treatment phase, 45 mg
[8] = test system: advanced solid tumors; assay: Tumor response by RECIST version 1.0; type: in vivo, human
[9] = 20 mg, all patients (n = 36), any grade
[10] = 20 mg, high-fat breakfast (n = 36), any grade
[11] = 20 mg, high-fat breakfast, any grade
[12] = 20 mg, normal breakfast (n = 34), any grade
[13] = 20 mg, normal breakfast, any grade
[14] = 20 mg, overnight fast (n = 34), any grade
[15] = food-effect phase, 20 mg, N = 36, Grade 3/4, regardless of study drug relationship
[16] = food-effect phase, 20 mg, N = 36, any grade, regardless of study drug relationship
[17] = food-effect phase, 20 mg, any grade
[18] = N = 29, Grade 3/4, regardless of study drug relationship
[19] = N = 29, any grade, regardless of study drug relationship

For `O=C(CCCCCCC(=O)Nc1ccccc1)NO` [vorinostat], the “delay in Tmax by food” value [1] is given as 2.5 h.

For `Cc1[nH]c2ccccc2c1CCNCc1ccc(/C=C/C(=O)NO)cc1` [panobinostat, Panobinostat], the Panobinostat-related fatigue [2, 9] was 16 (44.4) n (%), the Panobinostat-related nausea [2, 9] was 11 (30.6) n (%) and the Panobinostat-related vomiting [2, 9] was 7 (19.4) n (%). The “drug-related diarrhea, frequency” value ([2]; 20 mg, fasting, any grade) was 5.9%, the “drug-related nausea, frequency” value ([2]; 20 mg, fasting, any grade) was 14.7% and the “drug-related vomiting, frequency” value ([2]; 20 mg, fasting, any grade) was 14.7%. For the same molecule, the Panobinostat-related fatigue [2, 10] was 5 (13.9) n (%), the Panobinostat-related nausea [2, 10] was 3 (8.3) n (%) and the Panobinostat-related vomiting [2, 10] was 1 (2.8) n (%). For the same molecule, the “drug-related diarrhea, frequency” value [2, 11] was 0%, the “drug-related fatigue, frequency” value [2, 11] was 13.9% and the “drug-related nausea, frequency” value [2, 11] was 8.3%. The “drug-related vomiting, frequency” value [2, 11] was 2.8%, the Panobinostat-related fatigue [2, 12] was 10 (29.4) n (%) and the Panobinostat-related nausea [2, 12] was 8 (23.5) n (%). The Panobinostat-related vomiting [2, 12] was 5 (14.7) n (%), the “drug-related diarrhea, frequency” value [2, 13] was 8.8% and the “drug-related fatigue, frequency” value [2, 13] was 29.4%. For the same molecule, the “drug-related nausea, frequency” value [2, 13] was 23.5%, the “drug-related vomiting, frequency” value [2, 13] was 14.7% and the Panobinostat-related fatigue [2, 14] was 1 (2.9) n (%). The Panobinostat-related nausea [2, 14] was 5 (14.7) n (%), the Panobinostat-related vomiting [2, 14] was 5 (14.7) n (%) and the “drug-related fatigue, frequency” value ([2]; 20 mg, overnight fast, any grade) was 2.9%. The “patients with SAEs” value ([2]; food-effect phase, 20 mg) was “seven”, the “reported grade 3 or 4 AEs” value ([2]; food-effect phase, 20 mg) was “eight” and the “QTcF >480 ms or >60 ms increase from baseline” value ([2]; food-effect phase, 20 mg, 12-lead ECG) was “no QTcF >480 ms or >60 ms increase from baseline was observed”. For the same molecule, the Abdominal pain [2, 15] was 0 (0) n (%), the Constipation [2, 15] was 0 (0) n (%) and the Diarrhea [2, 15] was 1 (2.8) n (%). For the same molecule, the Fatigue [2, 15] was 3 (8.3) n (%), the Headache [2, 15] was 0 (0) n (%) and the Nausea [2, 15] was 2 (5.6) n (%). For the same molecule, the Pyrexia [2, 15] was 0 (0) n (%), the Thrombocytopenia [2, 15] was 0 (0) n (%) and the Total adverse events [2, 15] was 8 (22.2) n (%). For the same molecule, the Vomiting [2, 15] was 2 (5.6) n (%), the Abdominal pain [2, 16] was 5 (13.9) n (%) and the Constipation [2, 16] was 7 (19.4) n (%). For the same molecule, the Diarrhea [2, 16] was 7 (19.4) n (%), the Fatigue [2, 16] was 18 (50.0) n (%) and the Headache [2, 16] was 6 (16.7) n (%). For the same molecule, the Nausea [2, 16] was 15 (41.7) n (%), the Pyrexia [2, 16] was 5 (13.9) n (%) and the Thrombocytopenia [2, 16] was 5 (13.9) n (%). The Total adverse events [2, 16] was 34 (94.4) n (%), the Vomiting [2, 16] was 10 (27.8) n (%) and the “Fatigue, frequency” value [2, 17] was 50%. For the same molecule, the “Nausea, frequency” value [2, 17] was 41.7%, the “Thrombocytopenia, frequency” value [2, 17] was 13.9% and the “Vomiting, frequency” value [2, 17] was 27.8%. For the same molecule, the “study-drug related SAEs” value ([2]; food-effect phase, 20 mg, grade 3 fatigue and grade 3 vomiting) was “two”, the “patients discontinued due to adverse events” value ([2]; food-effect phase, grade 3 fatigue and nausea/vomiting following a normal breakfast) was “one” and the “mean AUC0–∞” value [3] was 183 ng·h/mL. The “Biopharmaceutics Classification System class” value [4] was “Class I like”, the “effect of prandial state on mean elimination half-life” value ([5]; fasting vs high-fat vs normal breakfast) was “not altered; also recorded: unaltered” and the “reduction of systemic exposure following food” value ([5]; food vs fasting) was 14–16%. The “interpatient variability of exposure (coefficient of variation)” value ([5]; with or without food) was 59%, the Cmax reduction ([5]; high-fat breakfast vs fasting) was 44% and the “Tmax, median difference (range)” value ([5]; high-fat breakfast/fasting) was 2.48 (–2.00 to 7.02) h. It also gave an AUC(0-inf) ([5]; human, plasma, po, 20 mg, AUC0–∞, mean (CV, %), fasting (n = 33)) of 176 ng·h/mL, a Cmax ([5]; human, plasma, po, 20 mg, Cmax, mean (CV, %), fasting (n = 33)) of 23 ng/mL and a Tmax ([5]; human, plasma, po, 20 mg, Tmax, median (range), fasting (n = 33)) of 1.5 h. The half-life ([5]; human, plasma, po, 20 mg, t1/2, mean (CV, %), fasting (n = 33)) was 870 min, the Cmax reduction ([5]; normal breakfast vs fasting) was 36% and the “Tmax, median difference (range)” value ([5]; normal breakfast/fasting) was 1.45 (–2.50 to 2.02) h. The accumulation [6] was “did not accumulate”, the “Fatigue, overall frequency” value [7] was 48.3% and the “Nausea, overall frequency” value [7] was 37%. The “Vomiting, overall frequency” value [7] was 31.0%, the “frequency of grade 3 and 4 AEs” value [7] was 65.5% and the “grade 3/4 biochemical abnormality: hypophosphatemia” value [7] was 10.3%. The “grade 3/4 newly occurring or worsened hematologic laboratory abnormality: decreased platelet count” value [7] was 44.8%, the Abdominal pain [7, 18] was 1 (3.4) n (%) and the Anemia [7, 18] was 1 (3.4) n (%). The Anorexia [7, 18] was 0 (0.0) n (%), the Constipation [7, 18] was 0 (0.0) n (%) and the Decreased platelet count [7, 18] was 3 (10.3) n (%). For the same molecule, the Diarrhea [7, 18] was 1 (3.4) n (%), the Dyspnea [7, 18] was 0 (0.0) n (%) and the Fatigue [7, 18] was 5 (17.2) n (%). The Headache [7, 18] was 0 (0.0) n (%), the Nausea [7, 18] was 1 (3.4) n (%) and the Pyrexia [7, 18] was 0 (0.0) n (%). The Thrombocytopenia [7, 18] was 11 (37.9) n (%), the Total adverse events [7, 18] was 19 (65.5) n (%) and the Vomiting [7, 18] was 2 (6.9) n (%). For the same molecule, the Abdominal pain [7, 19] was 6 (20.7) n (%), the Anemia [7, 19] was 5 (17.2) n (%) and the Anorexia [7, 19] was 10 (34.5) n (%). The Constipation [7, 19] was 3 (10.3) n (%), the Decreased platelet count [7, 19] was 6 (20.7) n (%) and the Diarrhea [7, 19] was 8 (27.6) n (%). For the same molecule, the Dyspnea [7, 19] was 7 (24.1) n (%), the Fatigue [7, 19] was 14 (48.3) n (%) and the Headache [7, 19] was 5 (17.2) n (%). For the same molecule, the Nausea [7, 19] was 11 (37.9) n (%), the Pyrexia [7, 19] was 3 (10.3) n (%) and the Thrombocytopenia [7, 19] was 15 (51.7) n (%). The Total adverse events [7, 19] was 26 (89.7) n (%), the Vomiting [7, 19] was 9 (31.0) n (%) and the “Thrombocytopenia, frequency” value ([7]; any grade) was 51.7%. For the same molecule, the “Thrombocytopenia, frequency” value ([7]; grade 3/4) was 37.9%, the “patients with QTc-interval abnormalities” value ([7]; QTcF >500 ms and/or increase >60 ms from baseline) was “two” and the “progressive disease, share of patients” value ([8]; N = 36, RECIST) was 58.3%. The “partial response, share of patients” value ([8]; N = 36, best response, RECIST) was 2.8% and the “stable disease, share of patients” value ([8]; N = 36, best response, RECIST) was 16.7%.
